Experimental data taken from PMC5577134 (Nature Communications, 2017).
In brackets after ≈: the same amount, converted by molar mass. Read-outs that look alike come from different tables or passages of the source. Marks after values point to notes of the source that are not given here. *1 amine or outer side, *2 acyl side, *3 side chain or, on linkers, in order; H or OH if unused. Where a SMILES comes first, the peptide text is derived from it. [ ]: non-standard residue; d: D form. ξ: configuration not given here. Trp(1-(1,1-Me2-allyl)) = C=CC(C)(C)n1cc(C[C@H](N)C(=O)O)c2ccccc21; NMeGlu(4S-Me) = C[C@@H](C[C@@H](C(=O)[*:2])N(C)[*:1])C(=O)[*:3]; Tyr(3-NO2) = N[CH](Cc1ccc(O)c([N+](=O)[O-])c1)C(=O)O; X1 = CC(C)(C1CO1)n1cc(CC(N[*:1])C(=O)[*:2])c2ccccc21; X2 = CC(CC(C(=O)[*:2])N(C)[*:1])C(=O)O; Gly(E-crotyl) = C/C=C/C[C@H](N)C(=O)O; ξNle(4,5-dehydro) = CC=CCC(N)C(=O)O; NMeL = CN[CH](CC(C)C)C(=O)O

How the values were obtained:
M. smegmatis MC^2 155 = assay: Antimycobacterial broth dilution MIC; format: cell-based, Mycobacterium smegmatis
Protocol: (§1) To determine the antibacterial activities of these eight compounds (1–8), a preliminary screening of their antibacterial activities against a panel of Gram-positive and Gram-negative bacteria[6]–[8], M. smegmatis MC^2 155 and M. tuberculosis H37Rv, was conducted using a broth dilution method, [59]. Compounds 1–8 were dissolved in dimethylsulfoxide (DMSO) to give 3200 μg mL^−1 stock solutions. The stock solutions were then serially diluted to concentrations of 0.0625–128 μg mL^−1 with MH broth or 7H9 broth (added with 0.2% glycerol, 0.05% Tween 80). DMSO in MH broth or 7H9 broth was used as a negative control, and broth-containing bacteria was used as positive control. All experiments were performed in triplicate with kanamycin and rifampicin as control agents.

MRSA shha-01 = assay: microbe, parasite or virus in culture; format: cell-based; settings: Staphylococcus aureus
[1] = test system: L02, normal human hepatic cell line; assay: MTT cytotoxicity, normal cell line control; format: cell-based
Protocol: (§2) Compounds 1–8 were evaluated for cytotoxicity using HeLa, HepG2, A549, CNE2, and MCF7 cell lines using a previously reported MTT method. The L02 and Huvec-12 cell lines were used as normal cell line controls. All these cell lines were obtained from American Type Culture Collection (ATCC) and cultured according to ATCC recommendations. Cell lines were checked for mycoplasma and profiled via short tandem repeat profiling to confirm their identity by the supplier. All experiments were performed in triplicate with doxorubicin and cis-platinum as control agents.

[2] = test system: Huvec-12, normal human umbilical vein endothelial cell line; assay: MTT cytotoxicity, normal cell line control; format: cell-based; settings: Huvec-12 normal cell line
Protocol: as §2

[3] = test system: HepG2, human hepatocellular carcinoma cell line; assay: MTT cytotoxicity; format: cell-based
Protocol: as §2

[4] = test system: HeLa, human cervical carcinoma cell line; assay: MTT cytotoxicity; format: cell-based
Protocol: as §2

[5] = test system: CNE2, human nasopharyngeal carcinoma cell line; assay: MTT cytotoxicity; format: cell-based
Protocol: as §2

[6] = test system: A549, human lung cancer cell line; assay: MTT cytotoxicity; format: cell-based
Protocol: as §2

[7] = test system: MCF7, human breast adenocarcinoma cell line; assay: MTT cytotoxicity; format: cell-based
Protocol: as §2

[8] = test system: Escherichia coli ATCC 25922; assay: Antibacterial broth dilution MIC; format: cell-based
Protocol: as §1

[9] = test system: Staphylococcus aureus ATCC29213; assay: Antibacterial broth dilution MIC; format: cell-based
Protocol: as §1

[10] = test system: Acinetobacter baumanii ATCC19606; assay: Antibacterial broth dilution MIC; format: cell-based
Protocol: as §1

[11] = test system: Enterococcus faecalis ATCC29212; assay: Antibacterial broth dilution MIC; format: cell-based
Protocol: as §1

Micrococcus luteus SC-1 = assay: Antibacterial broth dilution MIC; format: cell-based
Protocol: as §1

M. tuberculosis H37Rv = assay: Anti-TB broth dilution MIC; format: cell-based, Mycobacterium tuberculosis
[12] = test system: human tumor cell lines and normal human cell lines; assay: MTT cytotoxicity, summary over human tumor and normal cell lines; format: cell-based; settings: HeLa, HepG2, and A549 cell lines, read-out: IC50 values, range over cell lines
Protocol: as §2

[13] = test system: Mycobacterium tuberculosis H37Rv; parameters: method as in earlier work; settings: M. tuberculosis H37Rv; cited from earlier work
[14] = Epimerization/interconversion of hemiaminal isomers followed by HPLC; format: physicochemical; settings: non-aqueous solvents
Source text: An interesting feature we identified during HPLC studies is that compounds 7 and 6 epimerize/interconvert in […] solvents (e.g., MeOH or CH3CN); this interconversion also was noted under neat conditions following periods of long-term storage. […] The possibility interchange of these two pairs of compounds was postulated (Supplementary Fig. 34B). […] It is indeed interesting to consider that cyclic hemiaminal installation in ilamycins C1, C2, E1, and E2 is likely reflective of a transient C33 aldehyde and that the αOH orientation is preferred; presumably this is driven to some extent by the fixed stereochemical orientations at C24 and C32 in each respective case (Fig. 3f). By virtue of this interconversion chemistry it is significant to note that assays carried out with these agents likely involved the use of isomeric mixtures of 6/7 and 3/4 and no one specific isomer.

[15] = Mycolicibacterium smegmatis, MC^2155, read-out: MIC
[16] = Acinetobacter baumannii, ATCC19606
[17] = Mycobacterium tuberculosis, H37RV, broth dilution, triplicate, n = 3

Compound | MIC (M. smegmatis MC^2 155; [15]) [µM] | MIC (MRSA shha-01) [µM] | IC50 ([1]; Homo sapiens) [µM] | IC50 ([2]; Homo sapiens, Endothelial cell) [µM] | IC50 ([3]; Homo sapiens) [µM] | IC50 ([4]; Homo sapiens) [µM] | IC50 ([5]; Homo sapiens, CNE-2) [µM] | IC50 ([6]; Homo sapiens) [µM] | IC50 ([7]; Homo sapiens) [µM] | MIC ([8]; ATCC25922) [µM] | MIC [9] [µM] | MIC [10, 16] [µM] | MIC [11] [µM] | MIC (Micrococcus luteus SC-1; SC1) [µM] | MIC (M. tuberculosis H37Rv; [17]) [µM] | further results
C=CC(C)(C)n1cc(C[C@@H]2NC(=O)[C@H](C/C=C/C)NC(=O)[C@H](CC(C)C)NC(=O)[C@H](C[C@H](C)C(=O)O)N(C)C(=O)[C@H](C)NC(=O)[C@H](Cc3ccc(O)c([N+](=O)[O-])c3)NC(=O)[C@H](CC(C)C)N(C)C2=O)c2ccccc21 [compound 8, ilamycin F] (cyclo(A[NMeGlu(4S-Me)]L[Gly(E-crotyl)][Trp(1-(1,1-Me2-allyl))][NMeL][Tyr(3-NO2)])) | 30.7 (≈ 32 µg/mL) | > 123 | > 50 | > 50 | > 50 | > 50 | > 50 | > 50 | > 50 | > 123 | > 123 | 123 (≈ 128 µg/mL) | > 123 | > 123 | 1.2 (≈ 1.25 µg/mL) | –
CC=CCC1NC(=O)C(CC(C)C)NC(=O)C(CC(C)C(=O)O)N(C)C(=O)C(C)NC(=O)C(Cc2ccc(O)c([N+](=O)[O-])c2)NC(=O)C(CC(C)C)N(C)C(=O)C(Cc2cn(C(C)(C)C3CO3)c3ccccc23)NC1=O (stereo not drawn) [compound 5, ilamycin D] (cyclo([X2]L[ξNle(4,5-dehydro)][X1][NMeL][Tyr(3-NO2)]A); configuration not given here) | 30.3 (≈ 32.1 µg/mL) | > 121 | > 50 | > 50 | > 50 | > 50 | > 50 | > 50 | > 50 | > 121 | > 121 | 121 (≈ 128 µg/mL) | > 121 | > 121 | 1.2 (≈ 1.27 µg/mL) | –
CC=CCC1NC(=O)C(CC(C)C)N2C(=O)C(CC(C)C2O)N(C)C(=O)C(C)NC(=O)C(Cc2ccc(O)c([N+](=O)[O-])c2)NC(=O)C(CC(C)C)N(C)C(=O)C(Cc2cn(C(C)(C)C3CO3)c3ccccc23)NC1=O (stereo not drawn) [3/4] | 0.12 (≈ 0.125 µg/mL) | > 123 | 7.4 | 33.8 | 3.2 | 3.3 | 6.8 | 3.5 | 4.5 | > 123 | > 123 | 123 (≈ 128 µg/mL) | > 123 | > 123 | 9.6 (≈ 10 µg/mL) | IC50 [12]: 3.2 to 6.2 µM
C=CC(C)(C)n1cc(C[C@@H]2NC(=O)[C@H](C/C=C/C)NC(=O)[C@H](CC(C)C)NC(=O)[C@H](CC(C)C)N(C)C(=O)[C@H](C)NC(=O)[C@H](Cc3ccc(O)c([N+](=O)[O-])c3)NC(=O)[C@H](CC(C)C)N(C)C2=O)c2ccccc21 [compound 1, ilamycin B1] (cyclo(A[NMeL]L[Gly(E-crotyl)][Trp(1-(1,1-Me2-allyl))][NMeL][Tyr(3-NO2)])) | > 126 | > 126 | > 50 | > 50 | > 50 | > 50 | > 50 | > 50 | > 50 | > 126 | > 126 | 126 (≈ 128 µg/mL) | > 126 | > 126 | 98.9 (≈ 100 µg/mL) | –
NC[C@H]1O[C@H](O[C@H]2[C@H](O)[C@@H](O[C@H]3O[C@H](CO)[C@@H](O)[C@H](N)[C@H]3O)[C@H](N)C[C@@H]2N)[C@H](O)[C@@H](O)[C@@H]1O [Kanamycin, reference compound] | – | – | – | – | – | – | – | – | – | – | 0.85 (≈ 0.412 µg/mL) | – | – | – | – | MIC (M. smegmatis MC^2 155): 1.7^a μM; MIC [8]: 1.7 µM (≈ 0.824 µg/mL); MIC ([10]; Acinetobacter baumanii ATCC19606): 3.4 µM (≈ 1.65 µg/mL); MIC (Micrococcus luteus SC-1): 0.85 µM (≈ 0.412 µg/mL)
CO[C@H]1/C=C/O[C@@]2(C)Oc3c(C)c(O)c4c(O)c(c(/C=N/N5CCN(C)CC5)c(O)c4c3C2=O)NC(=O)/C(C)=C\C=C\[C@H](C)[C@H](O)[C@@H](C)[C@@H](O)[C@@H](C)[C@H](OC(C)=O)[C@@H]1C [Rif, Rifampin, reference compound] | – | – | – | – | – | – | – | – | – | – | – | – | – | – | – | MIC (M. tuberculosis H37Rv; Mycobacterium tuberculosis, H37RV, broth dilution, triplicate, n = 3, read-out: MIC): 0.3 µM (≈ 0.247 µg/mL)
CC=CCC1NC(=O)C(CC(C)C)N2C(=O)C(CC(C)C2O)N(C)C(=O)C(C)NC(=O)C(Cc2ccc(O)c([N+](=O)[O-])c2)NC(=O)C(CC(C)C)N(C)C(=O)C(Cc2cn(C(C)(C)C3CO3)c3ccccc23)NC1=O (stereo not drawn) [compound 3, ilamycin C1] | – | – | – | – | – | – | – | – | – | – | – | – | – | – | – | MIC [13]: < 1.3 µg/mL
C=CC(C)(C)n1cc(C[C@@H]2NC(=O)[C@H](C/C=C/C)NC(=O)[C@H](CC(C)C)N3C(=O)[C@H](C[C@H](C)C3O)N(C)C(=O)[C@H](C)NC(=O)[C@H](Cc3ccc(O)c([N+](=O)[O-])c3)NC(=O)[C@H](CC(C)C)N(C)C2=O)c2ccccc21 (stereo partly drawn) [6/7] | 30.7 (≈ 31.5 µg/mL) | > 125 | 14.9 | 18.6 | 4.9 | 3.9 | 14.9 | 6.2 | 3.9 | > 125 | > 125 | 125 (≈ 128 µg/mL) | > 125 | > 125 | 0.0098 (≈ 0.0101 µg/mL) | IC50 [12]: 3.2 to 6.2 µM; fold superior to positive control rifampin (MIC) (M. tuberculosis H37Rv): 30 fold; MIC (M. tuberculosis H37Rv; Mycobacterium tuberculosis, H37RV): ~0.0098 µM (≈ 0.0101 µg/mL); MIC (M. tuberculosis H37Rv; read-out: MIC): 0.0098 µM (≈ 0.0101 µg/mL)
N.N.[Cl][Pt][Cl] [Cis, Cisplatin, reference compound] | – | – | – | – | – | – | – | – | – | – | – | – | – | – | – | IC50 [1]: 22.7 µM; IC50 [2]: 34.5 µM; IC50 [3]: 2.5 µM; IC50 [4]: 5.2 µM; IC50 [5]: 12.9 µM; IC50 [6]: 9.3 µM; IC50 [7]: 14.1 µM
CC=CCC1NC(=O)C(CC(C)C)NC(=O)C(CC(C)C)N(C)C(=O)C(C)NC(=O)C(Cc2ccc(O)c([N+](=O)[O-])c2)NC(=O)C(CC(C)C)N(C)C(=O)C(Cc2cn(C(C)(C)C3CO3)c3ccccc23)NC1=O (stereo not drawn) [compound 2, ilamycin B2] (cyclo([ξNle(4,5-dehydro)][X1][NMeL][Tyr(3-NO2)]A[NMeL]L); configuration not given here) | > 124 | > 124 | 24.6 | 18.6 | 8.9 | 7.1 | 24.5 | 13.8 | 17.4 | > 124 | > 124 | 124 (≈ 128 µg/mL) | > 124 | > 124 | 2.4 (≈ 2.47 µg/mL) | –
COc1cccc2c1C(=O)c1c(O)c3c(c(O)c1C2=O)C[C@@](O)(C(=O)CO)C[C@@H]3O[C@H]1C[C@H](N)[C@H](O)[C@H](C)O1 [Dox, Doxorubicin, reference compound] | – | – | 13 | 34.3 | 1.2 | 0.98 | 3.6 | 3.4 | 3.4 | – | – | – | – | – | – | –
C=CC(C)(C)n1cc(C[C@@H]2NC(=O)[C@H](C/C=C/C)NC(=O)[C@H](CC(C)C)N3C(=O)[C@H](C[C@H](C)[C@H]3O)N(C)C(=O)[C@H](C)NC(=O)[C@H](Cc3ccc(O)c([N+](=O)[O-])c3)NC(=O)[C@H](CC(C)C)N(C)C2=O)c2ccccc21 [compound 6, ilamycin E1] | – | – | – | – | – | – | – | – | – | – | – | – | – | – | – | stability [14]: reasonably stable
